Legend:
USP24 [1] = molecular target: T1, USP24 (Homo sapiens, UniProt Q9UPU5); conditions: known; cited from earlier work
[2] = system: differentiated 3T3-L1 cells; experiment: Western blotting of proteins associated with adipocyte formation in 3T3-L1 cells; type: cell-based, mouse; conditions: Western blot, vs DMSO
Method: (§1) Commercially available mouse fibroblast cell line 3T3-L1 was cultured in commercially available Dulbecco's Modified Eagle Medium (DMEM) containing 10% fetal bovine serum (FBS), 100 μg/mL streptomycin, and 100 U/ml penicillin G sodium salt. All cell cultures were maintained at 37° C. with 5% CO2.
(§2) Please referred to FIG. 6A, which illustrated the experimental procedure for evaluating the effects of USP24 inhibitor on the induction of 3T3-L1 cells into adipocytes according to an embodiment of the present invention. When 3T3-L1 cells reached approximately 70% confluence, the MDIR induction medium containing USP24 inhibitor (5 μM or 10 μM) was added to the cells on day 0 and cultured for 2 days. Subsequently, on day 2, the induction medium was replaced with fresh medium containing USP24 inhibitor (5 μM or 10 μM) and insulin (10 μg/mL), and the cells were cultured for an additional 2 days. Next, the culture medium was changed the fresh medium containing USP24 inhibitor on day 4, and the cells were cultured for 4-6 more days, allowing 3T3-L1 cells to differentiate into adipocytes or adipocyte-like cells. And then, the cells were stained with Oil-Red-O (on days 8-10) to assess the influence of USP24 inhibitor on adipocyte formation, as shown in FIGS. 6B and 6C.
The MDIR induction medium included 0.5 mM 3-isobutyl-1-methylxanthine (IBMX), 1 μM dexamethasone (D), […] insulin (I), and 1 μM rosiglitazone (R) in Dulbecco's Modified Eagle Medium (DMEM). The components M, D, R, and USP24 inhibitor were dissolved in dimethyl sulfoxide (DMSO) and then added to DMEM. The insulin culture medium contained 10 μg/mL insulin in DMEM, and the fresh medium included 10% fetal bovine serum (FBS) in DMEM.
It was known that PPAR-γ and PLIN1 were important markers for adipocytes. In this embodiment, commercially available antibodies were used to perform Western blotting on 3T3-L1 cells to evaluate the expression levels of proteins associated with adipocyte formation in response to USP24-i-a treatment, as shown in FIGS. 7A to 7G.

3T3-L1 cells = experiment: differentiation of 3T3-L1 cells into adipocytes, Oil-Red-O staining; type: cell-based, mouse; conditions: 5 μM or 10 μM, MDIR induction, Oil-Red-O on days 8-10; dose-dependent; vs DMSO
Method: as §1
as §2, with “6C. […]” for “6C.”

CREB = CREB and its phosphorylation during 3T3-L1 differentiation; type: cell-based, mouse
HFD-mice = experiment: serum tests / safety assay by ELISA in ND and HFD mice; type: in vivo; conditions: serum of HFD mice; i.p. 10 mg/kg once a week for two months
Method: As shown in FIGS. 10A to 10H, serum were collected from normal diet (ND) and high fat diet (HFD) mice with or without USP24-i-101 treatment to study the safety assay by ELISA assay.
In this Example, wild-type mice were fed a normal diet (ND) or a high-fat diet (HFD), and they were injected intraperitoneally (i.p.) with 10 mg/kg of USP24-i once a week for two consecutive months. Subsequently, mouse sera were collected, and serum-related indices were examined to assess the impact of USP24-i on lipogenesis and liver function, as depicted in FIGS. 10A to 10H.
There was no statistically significant difference of the time of latency to fall off the rotarod between the USP 24 KO mice and the wild-type USP 24 mice, as shown in FIG. 10B. Mouse sera were collected from normal diet (ND) and high fat diet (HFD) mice with or without USP24-i treatment to perform the safety evaluation by ELISA assay. […] Therefore, USP24 inhibitor could inhibit the lipogenesis, thereby improving liver activity.

HFD mice [3] = experiment: treatment of HFD mice after obesity: body weight, visceral fat, fatty liver, eWAT and iWAT; type: in vivo
Source text: (§3) In the previous studies of the inventors, USP24-i-101 treated (i.p.) the HFD mice from the initiation of the experiment. […] In this Example, USP24-i-101 treated the mice after obesity, not from initiation. Mice were fed with HFD for two months and then treated with USP24-i-101 one month (two times per week, i.p.).
In addition, USP24-i-101 could inhibit eWAT and iWAT of mice. The subcutaneous fat and visceral fat (around organs such as kidney and reproductive organs) were collected to analyze the size of the epididymal WAT [eWAT, as shown in FIG. 11D (a), upper panel of FIG. 11D(c) and upper panel of FIG. 11D(d)] and inguial WAT [iWAT, as shown in FIG. 11D(b), lower panel of FIG. 11D(c) and lower panel of FIG. 11D(d)].

USP24-WT mice = experiment: liver tissue section H&E staining after normal diet or high-fat diet and USP24 inhibitor; type: in vivo; conditions: USP24 inhibitor oral 2 months
Source text: (§4) Animal-related experiments had been reviewed and approved by the Institutional Animal Care and Use Committee (IACUC) of National Cheng Kung University (NCKU). These genetically modified mice were generated at the National Laboratory Animal Center (NLAC) in Tainan, Taiwan. After breeding, 2 months-old wild-type mice and genetically modified mice were used to study lipogenesis progress. The cages provided adequate space, and the population density allowed the animals to move freely. The provided feed was sufficient for the normal growth and maintenance of regular body weight in both wild-type and genetically modified mice. Genetically modified mice had access to fresh, uncontaminated drinking water. Genetically modified mice were observed and cared for at least 2 to 3 times a week. All animal-related procedures were conducted in accordance with relevant guidelines and regulations.
It was known that USP24 inhibitor (USP24-i1, NCI677397, Formula I-3-3) could block USP24 catalytic activity, delaying or reversing cancer drug resistance.

USP24 [4] = molecular target: T1, USP24; experiment: inhibition of USP24 activity; type: biochemical; conditions: in comparison to USP24-i1; not shown in the figures
USP24-WT HFD mice = experiment: Oil-Red-O staining assay of liver tissue sections (hepatic lipid accumulation); type: in vivo; conditions: i.p. 10 mg/kg once a week for two consecutive months
Source text: as §4
In this embodiment, the analysis of hepatic lipid accumulation and distribution were performed using the Oil-Red-O staining assay. […] The USP24 inhibitor was administered by intraperitoneal injection (i.p.) at a dose of 10 mg/kg once a week for two consecutive months. Statistical analysis was conducted using a t-test, where * indicates p<0.01, and ** indicates p<0.005 (FIG. 5B).

HFD mice [5] = experiment: treatment of HFD mice from the initiation of the experiment (previous studies of the inventors); type: in vivo; conditions: HFD mice treated i.p. from the initiation of the experiment
Source text: as §3

HFD mice [6] = experiment: magnetic resonance imaging (MRI) of level and distribution of fat in HFD mice; conditions: MRI in vivo signal and collected kidney organs
Source text: The HFD mice with or without USP24-i-101 treatment according to the experimental flowchart of FIG. 12A were examined by magnetic resonance imaging (MRI) equipment to assess the level and distribution of fat inside them.

[7] = HFD two months, then treatment one month, two times per week, i.p.

T1 sequence (Q9UPU5 whole entry, species assumed): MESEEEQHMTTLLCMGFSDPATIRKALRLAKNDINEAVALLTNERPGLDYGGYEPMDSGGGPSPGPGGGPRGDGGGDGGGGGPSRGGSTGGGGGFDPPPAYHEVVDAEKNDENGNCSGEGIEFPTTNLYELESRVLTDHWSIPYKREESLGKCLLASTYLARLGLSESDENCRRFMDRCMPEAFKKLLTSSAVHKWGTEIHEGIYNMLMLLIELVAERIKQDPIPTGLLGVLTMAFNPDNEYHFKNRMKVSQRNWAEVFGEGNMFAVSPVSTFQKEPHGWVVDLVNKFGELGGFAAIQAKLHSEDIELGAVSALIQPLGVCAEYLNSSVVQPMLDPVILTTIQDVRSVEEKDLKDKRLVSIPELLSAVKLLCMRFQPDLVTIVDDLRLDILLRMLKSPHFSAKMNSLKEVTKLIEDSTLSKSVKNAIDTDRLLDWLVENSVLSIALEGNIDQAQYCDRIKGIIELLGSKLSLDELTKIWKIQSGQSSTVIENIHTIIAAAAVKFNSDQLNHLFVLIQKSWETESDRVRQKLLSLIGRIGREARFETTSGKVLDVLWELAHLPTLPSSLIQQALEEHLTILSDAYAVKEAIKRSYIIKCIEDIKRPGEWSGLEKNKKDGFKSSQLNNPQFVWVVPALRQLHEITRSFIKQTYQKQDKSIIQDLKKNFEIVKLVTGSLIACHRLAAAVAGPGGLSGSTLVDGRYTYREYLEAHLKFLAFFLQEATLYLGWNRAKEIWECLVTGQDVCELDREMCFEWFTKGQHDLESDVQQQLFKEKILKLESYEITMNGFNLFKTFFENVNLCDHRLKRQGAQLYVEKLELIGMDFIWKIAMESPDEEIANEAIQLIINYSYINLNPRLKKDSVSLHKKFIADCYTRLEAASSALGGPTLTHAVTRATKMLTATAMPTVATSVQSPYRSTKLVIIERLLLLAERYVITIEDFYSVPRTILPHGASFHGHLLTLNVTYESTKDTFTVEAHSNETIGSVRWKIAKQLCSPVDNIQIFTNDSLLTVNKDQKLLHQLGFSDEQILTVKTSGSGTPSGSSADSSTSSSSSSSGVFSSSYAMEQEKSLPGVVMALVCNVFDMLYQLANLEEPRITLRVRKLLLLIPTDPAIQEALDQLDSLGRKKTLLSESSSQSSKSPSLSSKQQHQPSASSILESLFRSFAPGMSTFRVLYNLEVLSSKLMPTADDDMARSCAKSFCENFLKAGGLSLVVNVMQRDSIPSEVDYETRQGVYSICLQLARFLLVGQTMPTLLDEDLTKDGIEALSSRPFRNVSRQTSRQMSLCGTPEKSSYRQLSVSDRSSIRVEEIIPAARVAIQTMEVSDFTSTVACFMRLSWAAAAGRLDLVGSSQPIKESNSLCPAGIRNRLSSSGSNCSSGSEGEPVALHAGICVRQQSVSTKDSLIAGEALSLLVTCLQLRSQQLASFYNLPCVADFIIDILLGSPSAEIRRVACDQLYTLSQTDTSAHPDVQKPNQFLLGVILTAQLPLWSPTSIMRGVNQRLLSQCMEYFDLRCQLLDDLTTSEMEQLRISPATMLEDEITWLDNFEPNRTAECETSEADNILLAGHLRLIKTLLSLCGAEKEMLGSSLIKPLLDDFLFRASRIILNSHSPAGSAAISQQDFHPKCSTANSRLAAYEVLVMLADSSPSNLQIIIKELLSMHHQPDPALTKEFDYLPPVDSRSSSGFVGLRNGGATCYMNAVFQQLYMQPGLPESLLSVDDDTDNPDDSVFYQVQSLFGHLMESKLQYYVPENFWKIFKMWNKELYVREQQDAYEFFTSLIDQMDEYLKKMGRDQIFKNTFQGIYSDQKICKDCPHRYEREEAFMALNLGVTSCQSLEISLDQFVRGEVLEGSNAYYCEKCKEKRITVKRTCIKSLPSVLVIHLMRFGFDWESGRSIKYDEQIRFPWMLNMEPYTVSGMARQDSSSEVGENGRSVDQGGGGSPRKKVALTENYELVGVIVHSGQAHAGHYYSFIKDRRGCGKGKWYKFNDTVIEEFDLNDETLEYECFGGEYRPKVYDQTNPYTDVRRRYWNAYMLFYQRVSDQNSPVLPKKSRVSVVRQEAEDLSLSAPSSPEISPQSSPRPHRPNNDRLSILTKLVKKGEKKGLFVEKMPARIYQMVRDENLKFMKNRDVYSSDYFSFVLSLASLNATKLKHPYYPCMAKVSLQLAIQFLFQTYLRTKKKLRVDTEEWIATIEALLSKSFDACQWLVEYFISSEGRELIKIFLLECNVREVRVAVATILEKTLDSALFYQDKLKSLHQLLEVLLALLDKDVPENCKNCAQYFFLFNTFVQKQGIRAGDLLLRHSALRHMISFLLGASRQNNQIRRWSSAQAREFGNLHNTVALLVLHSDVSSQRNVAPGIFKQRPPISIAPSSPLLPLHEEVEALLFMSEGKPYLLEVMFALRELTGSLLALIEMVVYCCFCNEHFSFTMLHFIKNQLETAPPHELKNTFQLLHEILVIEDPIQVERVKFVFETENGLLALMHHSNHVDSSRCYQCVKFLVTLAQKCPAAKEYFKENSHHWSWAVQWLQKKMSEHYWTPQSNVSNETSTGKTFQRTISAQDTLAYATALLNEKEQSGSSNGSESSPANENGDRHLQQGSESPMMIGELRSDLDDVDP

SMILES: CN1CCN(CCCCN2c3ccccc3Sc3ccc(C(=O)c4ccccc4)cc32)CC1 [USP24-i1]
- USP24 catalytic activity (USP24 [1]): could block

SMILES: CN1CCN(CCN2c3ccccc3Sc3ccc(C(=O)c4ccccc4)cc32)CC1 [USP24-i-a]
- expression level of C/EBPβ [2]: also reduced
- expression level of SREBP1 [2]: also reduced
- expression level of PLIN1 (Perilipin 1) ([2]; dose-dependent): reduced
- expression level of PPAR-γ ([2]; dose-dependent): reduced
- lipid droplet accumulation (3T3-L1 cells): significant reversal
- CREB (CREB): inhibited
- CREB phosphorylation (CREB): inhibited
- GOT (glutamic oxaloacetic transaminase) (HFD-mice): significantly inhibited
- GPT (glutamic pyruvic transaminase) (HFD-mice): significantly inhibited
- albumin (ALB) (HFD-mice): did not significantly change
- total cholesterol (HFD-mice): significantly inhibited
- total protein (TP) (HFD-mice): did not significantly change
- triglyceride (TG) (HFD-mice): did not significantly change
- size of epididymal WAT (eWAT) (HFD mice [3]; HFD mice): could be inhibited
- size of inguial WAT (iWAT) (HFD mice [3]; HFD mice): could be inhibited
- body weight (HFD mice [3]; [7]): significantly decreased
- fatty liver (HFD mice [3]; [7]): really decreased
- visceral fat (HFD mice [3]; [7]): really decreased
- lipid droplets in liver (H&E) (USP24-WT mice; USP24-WT HFD mice, 2 months high-fat diet): few to no lipid droplets
- lipid droplets in liver (H&E) (USP24-WT mice; USP24-WT ND mice, 2 months normal diet): few to no lipid droplets
- inhibition of USP24 activity (USP24 [4]): superior inhibition
- signals of Oil-Red-O staining in the liver (USP24-WT HFD mice): significantly reduced or nearly disappeared
- body weight (HFD mice [5]): could be inhibited
- fatty liver (HFD mice [5]): could be inhibited
- signal of fat around subcutaneous and organs (HFD mice [6]): significantly inhibited

From US20240197749A1, “METHOD OF INHIBITING LIPOGENESIS WITH UBIQUITIN-SPECIFIC PEPTIDASE 24 INHIBITOR COMPOSITION” (NATIONAL CHENG KUNG UNIVERSITY, priority 2022, published 2024)
